Results published in patent US11865098B1, “Methods and compositions for treating excessive sleepiness” (Axsome Malta Ltd., priority 2017, dated 2024).

System: adult patients with OSA and ES
Test: MWT, 12-week placebo-controlled parallel study in OSA
Type: in vivo, human
Conditions: for MWT mean sleep latency increase from baseline >=5 minutes, subjects / MWT mean sleep latency increase from baseline >=10 minutes, subjects / MWT mean sleep latency increase from baseline >=15 minutes, subjects / MWT mean sleep latency increase from baseline >=20 minutes, subjects / MWT mean sleep latency increase from baseline >=25 minutes, subjects / MWT mean sleep latency increase from baseline >=30 minutes, subjects: mITT
Experimental: The MWT is an objective test used to measure how alert a subject is during the day. The test consists of four sleep trials with two hours in between the trials. The first trial is performed 1.5-3 hours after the subject's normal wake-up time. Sensors are placed on the head, face, and chin to detect when the subject is asleep and awake during the test. The subject sits quietly in bed with his or her back and head supported by a pillow and is asked to sit still and look straight ahead while trying to stay awake as long as possible. Each trial lasts 40 minutes or until the subject is asleep for 90 seconds. Between trials, the subject stays out of bed and occupies himself or herself to remain awake. Falling asleep in an average of less than eight minutes is considered abnormal. About 40-60% of subjects with normal sleep stay awake for the entire 40 minutes of all four trials.
The study was a 12-week, double-blind, placebo-controlled, parallel design study as described in greater detail in Example 1 (Schweitzer et al., Sleep 40(Abstract Supplement):A237. Abstract 0641 (2017)). Patients were randomized (1:1:2:2:2) to APC 37.5, 75, 150, 300 mg, or placebo for 12 weeks, and were stratified by adherence or non-adherence with primary OSA therapy (adherent definition was use for ≥4 hours per night on >70% of nights). Two patient-reported measures were included as secondary efficacy outcomes to evaluate the effects of APC on functional status and work productivity and activity impairment at baseline and weeks 1, 4, 8, and 12. The Functional Outcomes of Sleep questionnaire short version (FOSQ-10) (Chasens et al., Sleep 32(7):915 (2009)) evaluated the effects of ES on functioning. The Work Productivity and Activity Impairment questionnaire for Specific Health Problems (WPAI:SHP) (Reilly et al., Pharmacoeconomics 4(5):353 (1993); Reilly, Work Productivity and Activity Impairment Questionnaire: Specific Health Problem V2.0 (WPAI: SHP). www.reillyassociates.net/WPAI_SHP) evaluated work productivity impairment among employed patients and overall activity impairment outside of work among all patients for the past 7 days. Four outcomes are available from the WPAI:SHP: Absenteeism (percent work time missed due to health); Presenteeism (percent impairment while working due to health); Percent overall work impairment (calculated from absenteeism and presenteeism); and Percent activity impairment due to health. The FOSQ-10 was evaluated as change over time compared with placebo (least squares (LS) mean); the 4 WPAI outcomes were evaluated at week 12 compared to placebo. Efficacy analyses were based on the modified intent-to-treat population (mITT) and there was no multiplicity adjustment for the FOSQ-10 or WPAI:SHP. Safety and tolerability were assessed based on treatment-emergent adverse events (TEAEs), vital signs, electrocardiogram test, physical exams, Columbia-Suicide Severity Rating Scale, and laboratory tests in the safety population.
This was a 12-week, double-blind, placebo-controlled, parallel-design study. Patients were randomized (1:1:2:2:2) to APC 37.5 mg, 75 mg, 150 mg, or 300 mg, or placebo for 12 weeks, and were stratified by adherence or nonadherence with primary OSA therapy.

[1] = Week 12, Combined JZP-110 doses

## NC(=O)OC[C@H](N)Cc1ccccc1 [JZP-110, (R)-2-amino-3-phenylpropyl carbamate]
37.5, 75, 150, 300 mg, week 12
  Co-primary MWT endpoint: met at all doses
Week 1, 37.5 mg
  MWT mean sleep latency increase from baseline >=5 minutes, subjects: 4 (22.2) n (%)
  MWT mean sleep latency increase from baseline >=10 minutes, subjects: 2 (11.1) n (%)
  MWT mean sleep latency increase from baseline >=15 minutes, subjects: 2 (11.1) n (%)
  MWT mean sleep latency increase from baseline >=20 minutes, subjects: 2 (11.1) n (%)
  MWT mean sleep latency increase from baseline >=25 minutes, subjects: 0 n (%)
  MWT mean sleep latency increase from baseline >=30 minutes, subjects: 0 n (%)
Week 1, 75 mg
  MWT mean sleep latency increase from baseline >=5 minutes, subjects: 11 (64.7) n (%)
  MWT mean sleep latency increase from baseline >=10 minutes, subjects: 6 (35.3) n (%)
  MWT mean sleep latency increase from baseline >=15 minutes, subjects: 4 (23.5) n (%)
  MWT mean sleep latency increase from baseline >=20 minutes, subjects: 1 (5.9) n (%)
  MWT mean sleep latency increase from baseline >=25 minutes, subjects: 1 (5.9) n (%)
  MWT mean sleep latency increase from baseline >=30 minutes, subjects: 0 n (%)
Week 1, 150 mg
  MWT mean sleep latency increase from baseline >=5 minutes, subjects: 27 (81.8) n (%)
  MWT mean sleep latency increase from baseline >=10 minutes, subjects: 22 (66.7) n (%)
  MWT mean sleep latency increase from baseline >=15 minutes, subjects: 13 (39.4) n (%)
  MWT mean sleep latency increase from baseline >=20 minutes, subjects: 9 (27.3) n (%)
  MWT mean sleep latency increase from baseline >=25 minutes, subjects: 4 (12.1) n (%)
  MWT mean sleep latency increase from baseline >=30 minutes, subjects: 2 (6.1) n (%)
Week 1, 300 mg
  MWT mean sleep latency increase from baseline >=5 minutes, subjects: 28 (75.7) n (%)
  MWT mean sleep latency increase from baseline >=10 minutes, subjects: 22 (59.5) n (%)
  MWT mean sleep latency increase from baseline >=15 minutes, subjects: 19 (51.4) n (%)
  MWT mean sleep latency increase from baseline >=20 minutes, subjects: 14 (37.8) n (%)
  MWT mean sleep latency increase from baseline >=25 minutes, subjects: 7 (18.9) n (%)
  MWT mean sleep latency increase from baseline >=30 minutes, subjects: 4 (10.8) n (%)
Week 1, Combined JZP-110 doses
  MWT mean sleep latency increase from baseline >=5 minutes, subjects: 70 (66.7) n (%)
  MWT mean sleep latency increase from baseline >=10 minutes, subjects: 52 (49.5) n (%)
  MWT mean sleep latency increase from baseline >=15 minutes, subjects: 38 (36.2) n (%)
  MWT mean sleep latency increase from baseline >=20 minutes, subjects: 26 (24.8) n (%)
  MWT mean sleep latency increase from baseline >=25 minutes, subjects: 12 (11.4) n (%)
  MWT mean sleep latency increase from baseline >=30 minutes, subjects: 6 (5.7) n (%)
Week 4, 37.5 mg
  MWT mean sleep latency increase from baseline >=5 minutes, subjects: 21 (42.0) n (%)
  MWT mean sleep latency increase from baseline >=10 minutes, subjects: 16 (32.0) n (%)
  MWT mean sleep latency increase from baseline >=15 minutes, subjects: 7 (14.0) n (%)
  MWT mean sleep latency increase from baseline >=20 minutes, subjects: 4 (8.0) n (%)
  MWT mean sleep latency increase from baseline >=25 minutes, subjects: 0 n (%)
  MWT mean sleep latency increase from baseline >=30 minutes, subjects: 0 n (%)
Week 4, 75 mg
  MWT mean sleep latency increase from baseline >=5 minutes, subjects: 34 (61.8) n (%)
  MWT mean sleep latency increase from baseline >=10 minutes, subjects: 25 (45.5) n (%)
  MWT mean sleep latency increase from baseline >=15 minutes, subjects: 11 (20.0) n (%)
  MWT mean sleep latency increase from baseline >=20 minutes, subjects: 5 (9.1) n (%)
  MWT mean sleep latency increase from baseline >=25 minutes, subjects: 2 (3.6) n (%)
  MWT mean sleep latency increase from baseline >=30 minutes, subjects: 1 (1.8) n (%)
Week 4, 150 mg
  MWT mean sleep latency increase from baseline >=5 minutes, subjects: 83 (76.9) n (%)
  MWT mean sleep latency increase from baseline >=10 minutes, subjects: 54 (50.0) n (%)
  MWT mean sleep latency increase from baseline >=15 minutes, subjects: 40 (37.0) n (%)
  MWT mean sleep latency increase from baseline >=20 minutes, subjects: 26 (24.1) n (%)
  MWT mean sleep latency increase from baseline >=25 minutes, subjects: 13 (12.0) n (%)
  MWT mean sleep latency increase from baseline >=30 minutes, subjects: 3 (2.8) n (%)
Week 4, 300 mg
  MWT mean sleep latency increase from baseline >=5 minutes, subjects: 79 (78.2) n (%)
  MWT mean sleep latency increase from baseline >=10 minutes, subjects: 63 (62.4) n (%)
  MWT mean sleep latency increase from baseline >=15 minutes, subjects: 47 (46.5) n (%)
  MWT mean sleep latency increase from baseline >=20 minutes, subjects: 32 (31.7) n (%)
  MWT mean sleep latency increase from baseline >=25 minutes, subjects: 15 (14.9) n (%)
  MWT mean sleep latency increase from baseline >=30 minutes, subjects: 5 (5.0) n (%)
Week 4, Combined JZP-110 doses
  MWT mean sleep latency increase from baseline >=5 minutes, subjects: 217 (69.1) n (%)
  MWT mean sleep latency increase from baseline >=10 minutes, subjects: 158 (50.3) n (%)
  MWT mean sleep latency increase from baseline >=15 minutes, subjects: 105 (33.4) n (%)
  MWT mean sleep latency increase from baseline >=20 minutes, subjects: 67 (21.3) n (%)
  MWT mean sleep latency increase from baseline >=25 minutes, subjects: 30 (9.6) n (%)
  MWT mean sleep latency increase from baseline >=30 minutes, subjects: 9 (2.9) n (%)
Week 12, 37.5 mg
  MWT mean sleep latency increase from baseline >=5 minutes, subjects: 18 (36.7) n (%)
  MWT mean sleep latency increase from baseline >=10 minutes, subjects: 16 (32.7) n (%)
  MWT mean sleep latency increase from baseline >=15 minutes, subjects: 10 (20.4) n (%)
  MWT mean sleep latency increase from baseline >=20 minutes, subjects: 5 (10.2) n (%)
  MWT mean sleep latency increase from baseline >=25 minutes, subjects: 0 n (%)
  MWT mean sleep latency increase from baseline >=30 minutes, subjects: 0 n (%)
Week 12, 75 mg
  MWT mean sleep latency increase from baseline >=5 minutes, subjects: 35 (64.8) n (%)
  MWT mean sleep latency increase from baseline >=10 minutes, subjects: 25 (46.3) n (%)
  MWT mean sleep latency increase from baseline >=15 minutes, subjects: 15 (27.8) n (%)
  MWT mean sleep latency increase from baseline >=20 minutes, subjects: 7 (13.0) n (%)
  MWT mean sleep latency increase from baseline >=25 minutes, subjects: 3 (5.6) n (%)
  MWT mean sleep latency increase from baseline >=30 minutes, subjects: 1 (1.9) n (%)
Week 12, 150 mg
  MWT mean sleep latency increase from baseline >=5 minutes, subjects: 71 (67.6) n (%)
  MWT mean sleep latency increase from baseline >=10 minutes, subjects: 53 (50.5) n (%)
  MWT mean sleep latency increase from baseline >=15 minutes, subjects: 39 (37.1) n (%)
  MWT mean sleep latency increase from baseline >=20 minutes, subjects: 26 (24.8) n (%)
  MWT mean sleep latency increase from baseline >=25 minutes, subjects: 13 (12.4) n (%)
  MWT mean sleep latency increase from baseline >=30 minutes, subjects: 0 n (%)
Week 12, 300 mg
  MWT mean sleep latency increase from baseline >=5 minutes, subjects: 69 (75.0) n (%)
  MWT mean sleep latency increase from baseline >=10 minutes, subjects: 60 (65.2) n (%)
  MWT mean sleep latency increase from baseline >=15 minutes, subjects: 40 (43.5) n (%)
  MWT mean sleep latency increase from baseline >=20 minutes, subjects: 26 (28.3) n (%)
  MWT mean sleep latency increase from baseline >=25 minutes, subjects: 12 (13.0) n (%)
  MWT mean sleep latency increase from baseline >=30 minutes, subjects: 6 (6.5) n (%)
[1]
  MWT mean sleep latency increase from baseline >=5 minutes, subjects: 193 (64.3) n (%)
  MWT mean sleep latency increase from baseline >=10 minutes, subjects: 154 (51.3) n (%)
  MWT mean sleep latency increase from baseline >=15 minutes, subjects: 104 (34.7) n (%)
  MWT mean sleep latency increase from baseline >=20 minutes, subjects: 64 (21.3) n (%)
  MWT mean sleep latency increase from baseline >=25 minutes, subjects: 28 (9.3) n (%)
  MWT mean sleep latency increase from baseline >=30 minutes, subjects: 7 (2.3) n (%)
